Measured values taken from publication PMC10149936, “Cofilin activation in pancreatic acinar cells plays a pivotal convergent role for mediating CCK-stimulated enzyme secretion and growth” (Frontiers in Physiology, 2023).

Experiments:
[1] = test system: LIMK (pT508) in pancreatic acini; assay: LIMK phosphorylation (pT508 LIMK Western blot) in isolated rat pancreatic acini; format: cell-based
Description: Pancreatic acini preparations were obtained by collagenase digestion as previously described ([Bissonnette et al., 1984]; [Sato et al., 1989]; [Ramos-Alvarez and Jensen, 2018]). After collagenase digestion, dispersed acini were preincubated with different inhibitors in standard incubation solution ([Ramos-Alvarez and Jensen, 2018]; [Ramos-Ãlvarez et al., 2020]) for 3 h at 37°C under conditions specific for PKD/PKC, Src, PI3K, MAPKs, SSH1, LIMK, cofilin, other phosphatases and PAK4 inhibitors, as described previously ([Ramos-Alvarez and Jensen, 2018]; [Ramos-Ãlvarez et al., 2020]). Isolated acini and CCK1-R/Panc-1 cells (M&M 2.2.1) were also preincubated with two SSH1 inhibitors, D3 (25 μM, 1 h) ([Li et al., 2015]) or SE (50 μM, 3 h for acini; 24 h for CCK1-R/Panc-1 cells) ([Lee et al., 2017]). After preincubation, 1 mL aliquots of dispersed acini were incubated at 37°C for 3–15 min with CCK-8 (0.3 nM or 100 nM), for 5–15 min with TPA (1 µM) or without stimulants, used as control. Cells were lysed in lysis buffer (50 mM Tris/HCl pH 7.5, 150 mM NaCl, 1% Triton X-100, 1% deoxycholate, 0.1% sodium azide, 1 mM EGTA, 0.4 mM EDTA, 0.2 mM sodium orthovanadate, 1 mM PMSF, and one protease inhibitor tablet per 10 mL). After sonication, lysates were centrifuged at 10,000×g for 15 min at 4°C and protein concentration was measured using the Bio-Rad protein assay reagent. Finally, cells were processed as below for Western blotting.
Both concentrations of CCK-8 were used because CCK-8 is reported to have different responses with physiological and supraphysiological concentrations contributing to physiological and pathophysiological processes such as pancreatitis ([Dufresne et al., 2006]).
Western blotting and immunoprecipitation were performed as described previously ([Ramos-Alvarez and Jensen, 2018]). Whole cell lysates were subjected to SDS-PAGE using 4%–20% Tris–Glycine gels. […] Finally, membranes were then washed again twice in blocking buffer for 4 min, twice in washing buffer for 4 min, incubated for 4 min with chemiluminescence detection reagents. The intensity of the protein bands was measured using GeneTools software from Syngene, which were assessed in the linear detection range.
Isolated pancreatic acini were incubated with either no addition (control), CCK-8 (0.3 and 100 nM) or TPA (1 µM) for the indicated periods of time and then lysed. Western blots were analyzed using anti-pT508 LIMK, anti-pS3 cofilin and anti-pS978 SSH1, which […] the activation states of LIMK, cofilin and SSH1. Bands were visualized using chemiluminescence and quantified by densitometry.

AR42J cells = assay: amylase release from AR42J cells (Phadebas); format: cell-based; conditions: Cytochalasin D 10 µM or Paclitaxel 5 µM; for inhibition of CCK-8/A71378-induced amylase secretion: 4 h, CCK-8 and A71378 (0.03 and 1 nM), 30 min; for effect on basal amylase release: AR42J (Figure 13B)
Description: CCK1 receptor transfected Panc-1 (CCK1-R/Panc-1) cells ([Berna et al., 2009]) and AR42J cells, were cultured in DMEM supplemented with 10% FBS and 1% penicillin/streptomycin and in RPMI supplemented with 10% FBS and 1% penicillin/streptomycin, respectively; and split 1:10 weekly with trypsin/EDTA, after washing in PBS. Finally, cells were seeded in 6-well plate and serum starved overnight, until they were 80% confluent. Cells were incubated at 37°C in 5% CO2/95% air. AR42J cells were treated with 100 nM dexamethasone for 72°h, which stimulates their differentiation into exocrine cells ([Logsdon, 1986]).
For siRNA-mediated knockdown, 5 × 10^5 CCK1-R/Panc-1 or AR42J cells were seeded into 6-well plates and incubated for 24 h. Cells were then transfected with 10 nM of siRNA against human SSH1 siRNA against human cofilin (Dharmacon. Lafayette, CO) in Opti-MEM medium for 48 h using Lipofectamine according to the manufacture’s instruction.
Amylase release was performed as described previously ([Sato et al., 1989]; [Ramos-Alvarez and Jensen, 2018]). Amylase activity was determined after 30 min incubation using the Phadebas reagent and was expressed as percentage of the total cellular amylase released into the extracellular medium during the incubation ([Ramos-Alvarez and Jensen, 2018]).
FIGURE 13 Effect of two cofilin inhibitors, Cytochalasin D or Paclitaxel, (A, B), or Cofilin siRNA (C), on the ability of CCK/TPA/A71378-stimulated amylase release form pancreatic acini (A) or AR42J cells (B, C). In (A, B) pancreatic acini and AR42J cells were incubated in the absence or presence of Cytochalasin D (10 µM) or Paclitaxel (5 µM) for 4 h and then incubated with no additions (control) or CCK-8 (0.03, 0.3, 1 and 100 nM), TPA (1 µM) or A71378 (0.03 and 1 nM) for 30 min and then lysed. In (B, C) AR42J cells were treated with Dexamethasone (100 nM) for 72 h, and in (C) AR42J cells were transfected with siRNA Non-targeting Control and siRNA against cofilin for 48 h, and then incubated with no addition (control) or CCK-8 (0.03 and 1 nM) and A71378 (0.03 and 1 nM) for 30 min. Amylase release, expressed as percent of cellular total amylase secreted, was determined after 30 min incubation. Means ± S.E. of at least 3 independent experiments. N.S., No significant.

epithelial cells = conditions: ref Matsubayashi et al., 2004; cited from earlier work

| Compound | time of return of LIMK phosphorylation to basal levels ([1]; CCK-8 0.3 or 100 nM) | inhibition of CCK-8/A71378-induced amylase secretion (AR42J cells) | effect on basal amylase release (AR42J cells) | effect on cell migration (epithelial cells) | effect on LIMK dephosphorylation ([1]; TPA 1 µM) |
| --- | --- | --- | --- | --- | --- |
| COOH-terminal octapeptide of cholecystokinin [CCK-8] | 30 min | – | – | – | – |
| C=C1[C@@H](C)[C@H]2[C@H](Cc3ccccc3)NC(=O)[C@]23[C@H](OC(C)=O)/C=C/[C@@](C)(O)C(=O)[C@@H](C)C/C=C/[C@H]3[C@@H]1O [Cytochalasin D] | – | completely inhibited | Neither of these two cofilin inhibitors influenced basal amylase release | completely blocked cell migration | – |
| CCCCCCCCCCCCCC(=O)O[C@@H]1[C@@H](C)[C@@]2(O)[C@@H](C=C(CO)C[C@]3(O)C(=O)C(C)=C[C@@H]23)[C@H]2C(C)(C)[C@]12OC(C)=O [TPA, 12-O-tetradecanoylphobol-13-acetate] | – | – | – | – | did not cause LIMK dephosphorylation |
| CC(=O)O[C@H]1C(=O)[C@@]2(C)[C@H]([C@H](OC(=O)c3ccccc3)[C@]3(O)C[C@H](OC(=O)[C@H](O)[C@@H](NC(=O)c4ccccc4)c4ccccc4)C(C)=C1C3(C)C)[C@]1(OC(C)=O)CO[C@@H]1C[C@@H]2O [Paclitaxel] | – | completely inhibited | Neither of these two cofilin inhibitors influenced basal amylase release | – | – |
